We go through 2 molecules from PMC9558053, “Development of a novel high-throughput screen for the identification of new inhibitors of protein S-acylation” (The Journal of Biological Chemistry, 2022).

SMILES strings stand for the structures.

In the experiment the target is T1, human zDHHC15 (Homo sapiens, UniProt Q96MV8).
T1 construct: expressed in transfected cells; host or cells: HEK293T
T1 sequence (Q96MV8 1-337): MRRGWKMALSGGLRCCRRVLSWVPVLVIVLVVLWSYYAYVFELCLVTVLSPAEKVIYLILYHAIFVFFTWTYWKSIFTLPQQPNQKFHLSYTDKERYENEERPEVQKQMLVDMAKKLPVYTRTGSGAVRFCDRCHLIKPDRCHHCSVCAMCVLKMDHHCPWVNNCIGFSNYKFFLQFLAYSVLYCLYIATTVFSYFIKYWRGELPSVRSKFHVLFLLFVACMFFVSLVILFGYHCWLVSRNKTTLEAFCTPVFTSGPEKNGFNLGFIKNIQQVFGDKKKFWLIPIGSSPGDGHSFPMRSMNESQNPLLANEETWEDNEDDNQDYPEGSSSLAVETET
Kind of experiment: GFP-SNAP25b S-acylation in HEK293T cells co-expressing zDHHC15. The experiment is classed as cell-based. The following applies: HEK-293T; in cellulo HEK293T, compound 25 μM; read-out: SNAP25 S-acylation inhibition (%), zDHHC15. The protocol:
We next investigated whether the identified compounds were effective at inhibiting zDHHC enzyme isoforms other than zDHHC2 (Fig. 6 and Table 1). […] We therefore treated cells coexpressing GFP-SNAP25 and each of these zDHHC enzymes with 25 μM of TTZ-1 and TTZ-2 and studied the subsequent effect on SNAP25 S-acylation. […] Importantly, the level of enzyme expression was unaffected by the compounds. […] As any major differences in the expression levels of the different enzymes could in theory contribute to the apparent differential effects of TTZ-1 and TTZ-2, we directly compared the expression of zDHHC2, zDHHC3, zDHHC7, zDHHC15, and zDHHC17 when transfected in HEK293T cells together with GFP-SNAP25.
Figure 6 Activity of TTZ-1 and TTZ-2 against SNAP25 S-acylation by human zDHHC2, zDHHC3, zDHHC7, zDHHC15, and zDHHC17 expressed in mammalian cells.A–E, HEK293T cells were transfected with a plasmid encoding GFP-SNAP25b together with either a control plasmid pEF-BOS-HA (pEF) or a plasmid encoding either HA-tagged human zDHHC2 (zD2) (A), zDHHC3 (zD3) (B), zDHHC7 (zD7) (C), zDHHC15 (zD15) (D), or zDHHC17 (zD17) (E) for 24 h. […] Three independent experiments were performed either in duplicate or in triplicate, and the quantification data were gathered on the graphs below each set of membranes. […]

Turning to `CCCCCCCOc1ccc(C(=O)Nc2cccc3c2OC(c2nnn[nH]2)CN3)cc1` (centres unmarked) [TTZ-1, N-(2-(1H-Tetrazol-5-yl)-3,4-dihydro-2H-benzo[b][1,4]oxazin-8-yl)-4-(heptyloxy)benzamide], the inhibition at 25 µM is 112 ± 6%.
For `O=C(Nc1cccc2c1OC(c1nnn[nH]1)CN2)c1ccc(OCCCCc2ccccc2)cc1` (centres unmarked) [TTZ-2, N-(2-(1H-Tetrazol-5-yl)-3,4-dihydro-2H-benzo[b][1,4]oxazin-8-yl)-4-(4-phenylbutoxy)benzamide], the inhibition at 25 µM worked out at 93 ± 6%.
